Test results reported in US10676468B2, “N-(3-heteroarylaryl)-4-arylarylcarboxamides and analogs as hedgehog pathway inhibitors and use thereof” (IMPACT Therapeutics, Inc., priority 2012, dated 2020).
Counter-ions that a name gives are not always drawn.

Columns and labels:
Assay type in all cases: cell-based, mouse
[1] = system: Hedgehog Signaling Pathway; experiment: SHH-induced differentiation of C3H10T1/2 cells into osteoblastic cells, intracellular alkaline phosphatase activity; details: 10 nM SHH-N, 5 days, alkaline phosphatase activity (OD405), read-out: IC50 values of compounds that inhibit Hh pathway
Procedure, shortened: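 Hedgehog pathway inhibition was taken as loss of SHH-driven osteoblastic differentiation. Test compound (10 nM–10 μM) plus SHH-N (10 nM) was applied to C3H10T1/2 cells for 5 days, then lysate phosphatase turnover was measured as the 30-min OD405 change at 37 °C. IC50 was fitted from activity versus log dose.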

[2] = system: Hedgehog Signaling Pathway; experiment: SAG-induced differentiation of C3H10T1/2 cells into osteoblastic cells, intracellular alkaline phosphatase activity; details: Mus musculus, C3H 10T1/2, 120 h, 1 μM SAG, 5 days, alkaline phosphatase activity (OD405), read-out: IC50 values of compounds that inhibit Hh pathway
Procedure, shortened: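 Mouse C3H10T1/2 cells were induced with SAG and exposed to compound (10 μM to 1 nM) for 5 days at 37 °C. Cells were lysed in 0.2% Triton, and alkaline phosphatase activity was read as OD405 over 30 min at 37 °C in pH 9.8 substrate buffer. IC50 came from a non-linear fit of background-subtracted OD405 against log concentration.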

[3] = system: Hedgehog Signaling Pathway; experiment: Gli-Luc reporter gene cell assay in C3H10T1/2/Gli-Luc cells stimulated with Shh; details: 30 nM Shh, luciferase activity (RLU), read-out: IC50 values of compounds that inhibit Hh pathway
Text: The Application of Reporter Gene Cell Assay for the Determination of the Inhibitory Activity of N-(3-(1H-benzo[d]imidazol-2-yl)-4-chlorophenyl)-2-methyl-4-((2S,6R)-2,6-dimethylmorpholino) benzamide and Analogs on Hedgehog Signaling Pathway
The binding of Sonic hedgehog (Shh) to its receptor Patched 1 initiates numerous intracellular signal transmission, and leads to the nuclear translocation of Gli and the elevated transcription of Gli target genes. When C3H10T1/2 cells are stably transfected with the Gli-Luc plasmids containing the luciferase gene under the control of Gli response element and stimulated with Shh, the expression of luciferase is elevated. Luciferase activity is indicative of the hedgehog signaling pathway activity. Therefore, the inhibitory activity of compounds on hedgehog signaling pathway can be measured using the luciferase activity when the transfected cells are stimulated with Shh.
The day before experiment, C3H10T1/2/Gli-Luc cells in log phase of growth were seeded into 96 well plate at a density of 20000 cells per well. The cells were maintained in DMEM (Hyclone) supplemented with 10% FBS (Hyclone) and incubated at 37° C. with 5% CO2 overnight. The compounds to be examined were diluted into 7 different concentrations by series of dilutions (⅓ and 1/10), and the eighth point of concentration is the DMSO control. Those solutions were diluted 100-fold in the fresh growth medium. The cells were taken out of the incubator and the medium of cultured cells were removed. Then, each well was added in an orderly manner with 80 μL of fresh growth medium, 20 μL of medium pre-dilution of positive compound and compounds to be tested, as well as 100 μL of growth medium containing 30 nM of Shh. The cells are returned to the incubator, and incubated for 24 hours.
Measurement of luciferase activity: After taking the 96 well plate out of the incubator, the supernatants were discarded and the cells were washed twice with PBS. Thereafter, each well was dispensed with 20 μL of lysis buffer (Promega E1531), and the plate was shaken for 30 min at room temperature. Following transferring 5 μL of cell lysate into 384 well plate (Greiner 781074), adding 25 μL of luciferase reaction buffer (Promega E1501) into each well and mixing the plate, the relative light unit (RLU) was immediately captured by VarioSkan Flash.
The data were analyzed with Prism 5 software (GraphPad). The relative light unit (RLU) was plotted against the log concentration of testing compound, and the obtained plot was fitted with non-linear curve fitting equation to calculate IC50 values. The curve fitting equation is Y (RLU)=Bottom+(Top−Bottom)/(1+10^((X−Log IC50))). X is the logarithm of concentration. Y is the measure of relative light unit (RLU).
The calculated IC50 value is a measurement of the inhibitory activity of compound to Hh pathway.

[4] = Mus musculus, C3H 10T1/2, 120 h

SMILES	IC50 [1, 4]	IC50 [2]	IC50 ([3]; Mus musculus, C3H 10T1/2, 24 h)	IC50 ([1]; Dihydrochloride)	IC50 ([3]; 24 hours, Dihydrochloride)
Cc1cc(-c2ccc(C#N)cc2)ccc1C(=O)Nc1ccc(Cl)c(-c2nc3ccccc3[nH]2)c1 [Example 6, N-(3-(1H-benzo[d]imidazol-2-yl)-4-chlorophenyl)-3-methyl-4′-cyanobiphenyl-4-carboxamide]	2.6 nM	19 nM	3.3 nM		
Cc1cc(-c2ccc([N+](=O)[O-])cc2)ccc1C(=O)Nc1ccc(Cl)c(-c2nc3ccccc3[nH]2)c1 [Example 7, N-(3-(1H-benzo[d]imidazol-2-yl)-4-chlorophenyl)-3-methyl-4′-nitrobiphenyl-4-carboxamide]	3.5 nM	25 nM	4.6 nM		
Cc1cc(-c2ccc(Cl)cc2)ccc1C(=O)Nc1ccc(Cl)c(-c2nc3ccccc3[nH]2)c1 [Example 8, N-(3-(1H-benzo[d]imidazol-2-yl)-4-chlorophenyl)-3-methyl-4′-chlorobiphenyl-4-carboxamide]	3.6 nM	86 nM	4.6 nM		
Cc1cc(C(=O)Nc2ccc(Cl)c(-c3nc4ccccc4[nH]3)c2)ccc1-c1ccc(C(F)(F)F)cc1 [Example 14, N-(3-(1H-benzo[d]imidazol-2-yl)-4-chlorophenyl)-2-methyl-4′-(trifluoromethyl)biphenyl-4-carboxamide]	5.5 nM	80 nM	9.5 nM		
O=C(Nc1ccc(Cl)c(-c2nc3ccccc3[nH]2)c1)c1ccc(-c2ccc(C(F)(F)F)cc2)cc1Cl [Example 18, N-(3-(1H-benzo[d]imidazol-2-yl)-4-chlorophenyl)-3-chloro-4′-(trifluoromethyl)biphenyl-4-carboxamide]	3.7 nM	60 nM	8.2 nM		
Cc1cc(-c2ccc(C(F)(F)F)cc2)ccc1C(=O)Nc1ccc(Cl)c(-c2nc3ccccc3[nH]2)c1 [Example 21, N-(3-(1H-benzo[d]imidazol-2-yl)-4-chlorophenyl)-3-methyl-4′-(trifluoromethyl)biphenyl-4-carboxamide]	2.3 nM	30 nM	5.8 nM		
O=C(Nc1ccc(Cl)c(-c2nc3ccccc3[nH]2)c1)c1ccc(-c2ccc(C(F)(F)F)cc2)cc1 [Example 22, N-(3-(1H-benzo[d]imidazol-2-yl)-4-chlorophenyl)-4′-(trifluoromethyl)biphenyl-4-carboxamide]	15 nM	124 nM	16 nM		
Nc1cc(-c2ccc(C(F)(F)F)cc2)ccc1C(=O)Nc1ccc(Cl)c(-c2nc3ccccc3[nH]2)c1 [Example 25, N-(3-(1H-benzo[d]imidazol-2-yl)-4-chlorophenyl)-3-amino-4′-(trifluoromethyl)biphenyl-4-carboxamide]	5.5 nM	191 nM	4 nM		
Cc1cc(N2C[C@@H](C)O[C@@H](C)C2)ccc1C(=O)Nc1ccc(Cl)c(-c2nc3ccccc3[nH]2)c1 [Example 32, N-(3-(1H-benzo[d]imidazol-2-yl)-4-chlorophenyl)-2-methyl-4-((2S,6R)-2,6-dimethylmorpholino)benzamide]	7.9 nM	53 nM	7.2 nM		
C[C@@H]1CN(c2ccc(C(=O)Nc3ccc(Cl)c(-c4nc5ccccc5[nH]4)c3)cn2)C[C@H](C)O1 [Example 35, N-(3-(1H-benzo[d]imidazol-2-yl)-4-chlorophenyl)-6-((2S,6R)-2,6-dimethylmorpholino)nicotinamide]	10 nM	56 nM	7.8 nM		
Cc1nc(N2C[C@@H](C)O[C@@H](C)C2)ccc1C(=O)Nc1ccc(Cl)c(-c2nc3ccccc3[nH]2)c1 [Example 38, N-(3-(1H-benzo[d]imidazol-2-yl)-4-chlorophenyl)-2-methyl-6-((2S,6R)-2,6-dimethylmorpholino)nicotinamide]	4.9 nM	28 nM	8.4 nM		
COc1ncc(-c2ccc(C(=O)Nc3ccc(Cl)c(-c4nc5ccccc5[nH]4)c3)c(C)c2)cn1 [Example 39, N-(3-(1H-benzo[d]imidazol-2-yl)-4-chlorophenyl)-2-methyl-4-(2-methoxypyrimidin-5-yl)benzamide]	15 nM	40 nM	8.2 nM		
Cc1cc(-c2cncnc2)ccc1C(=O)Nc1ccc(Cl)c(-c2nc3ccccc3[nH]2)c1 [Example 43, N-(3-(1H-benzo[d]imidazol-2-yl)-4-chlorophenyl)-2-methyl-4-(pyrimidin-5-yl)benzamide]	8.5 nM	16 nM	12 nM		
Cc1cc(-c2ccc(C(F)(F)F)cc2)ccc1C(=O)Nc1ccc(C)c(-c2nc3ccccc3[nH]2)c1 [Example 46, N-(3-(1H-benzo[d]imidazol-2-yl)-4-methylphenyl)-3-methyl-4′-(trifluoromethyl)biphenyl-4-carboxamide]	5.1 nM	89 nM	5.5 nM		
Cc1cc(-c2ccc(C(F)(F)F)cc2)ccc1C(=O)Nc1ccc(Cl)c(-c2nc3ccccc3n2C)c1 [Example 47, N-(3-(1-methyl-1H-benzo[d]imidazol-2-yl)-4-chlorophenyl)-3-methyl-4′-(trifluoromethyl)biphenyl-4-carboxamide]	3.3 nM	102 nM	8.7 nM		
Cc1cc(-c2ccc(C(F)(F)F)cc2)ccc1C(=O)Nc1ccc(Cl)c(-c2nc3cnccc3[nH]2)c1 [Example 49, N-(3-(1H-imidazo[4,5-c]pyridin-2-yl)-4-chlorophenyl)-3-methyl-4′-(trifluoromethyl)biphenyl-4-carboxamide]	2.4 nM	261 nM	7.2 nM		
Cc1cc(-c2ccc(C(F)(F)F)cc2)ccc1C(=O)Nc1ccc(Cl)c(-c2ncc(-c3ccccc3)[nH]2)c1 [Example 50, N-(3-(5-phenyl-1H-imidazol-2-yl)-4-chlorophenyl)-3-methyl-4′-(trifluoromethyl)biphenyl-4-carboxamide]	7.9 nM	125 nM	10 nM		
Cc1cc(-c2ccc(C(F)(F)F)cc2)ccc1C(=O)Nc1ccc(Cl)c(-c2ccccn2)c1 [Example 59, N-(3-(pyridin-2-yl)-4-chlorophenyl)-3-methyl-4′-(trifluoromethyl)biphenyl-4-carboxamide]	7.5 nM	232 nM	9.1 nM		
Cc1cc(-c2ccc(C(F)(F)F)cc2)ccc1C(=O)Nc1cncc(-c2nc3ccccc3[nH]2)c1 [Example 60, N-(5-(1H-benzo[d]imidazol-2-yl)pyridin-3-yl)-3-methyl-4′-(trifluoromethyl)biphenyl-4-carboxamide]	18 nM	141 nM	23 nM		
C[C@@H]1CN(c2ccc(C(=O)Nc3ccc(Cl)c(-c4nc5ccc(F)cc5[nH]4)c3)c(Cl)c2)C[C@H](C)N1C [Example 131, N-(3-(6-fluoro-1H-benzo[d]imidazol-2-yl)-4-chlorophenyl)-2-chloro-4-((3S,5R)-3,4,5-trimethylpiperazin-1-yl)benzamide Dihydrochloride]				7.2 nM	1.2 nM
CCN1[C@H](C)CN(c2ccc(C(=O)Nc3ccc(Cl)c(-c4nc5cscc5[nH]4)c3)c(Cl)c2)C[C@@H]1C [Example 203, N-(3-(1H-thieno[3,4-d]imidazol-2-yl)-4-chlorophenyl)-2-chloro-4-((3S,5R)-4-ethyl-3,5-dimethylpiperazin-1-yl)benzamide]			0.29 nM		
